We go through 1 molecule from article PMC6336887, “Smallest near-infrared fluorescent protein evolved from cyanobacteriochrome as versatile tag for spectral multiplexing” (Nature Communications, 2019).

The target in one test is T1, NpR3784 GAF domain (Nostoc punctiforme, UniProt B2J457).
T1 construct: gene Npun_R3784
Put plainly: near-infrared fluorescence of E. coli co-expressing heme oxygenase. The note with it: weak binding; BV produced in the cells. Format: cell-based.

Another test has as its target T2, miRFP670nano (Nostoc punctiforme, UniProt B2J457, V48M/F66C/M67V/Y68F/P72E/S82A/A89S/N92K/Q96R/T98R/I113Y/G123N/H128Y/N140I/N158H/C160L/L177Q/Q180V, form not given).
T2 construct: gene Npun_R3784; single GAF domain, N-terminal alpha1-helix removed, 147 residues, 17 kDa, N-terminal polyhistidine tag, E. coli LMG194 co-expressing heme oxygenase, monomer
Put plainly: X-ray crystal structure, […] A. Format: binding. The note with it: covalent thioether, Cys86 to C3^1 of ring A; crystals at pH 4.0; BV from co-expressed heme oxygenase.

Each structure is given as a SMILES string.

Regarding `C=CC1=C(C)C(=Cc2[nH]c(C=C3N=C(C=C4NC(=O)C(C)=C4C=C)C(C)=C3CCC(=O)O)c(CCC(=O)O)c2C)NC1=O` [biliverdin], the “near-infrared fluorescence of E. coli co-expressing heme oxygenase” value at NpR3784 GAF domain is “the GAF domain of NpR3784 CBCR”. The “X-ray crystal structure, 1.95 A” value at miRFP670nano is recorded as “BV is covalently attached by a thioether bond between the conserved for CBCRs Cys86 residue”.
